Laboratory results reported in the supplement of paper PMC10307832.

Columns and labels:
Test in all cases: relative viability (nuclei count vs DMSO), 5 days (fraction); higher = more cells survive
[1] = system: HCC-366
In short: (§1)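 Lung cancer cell lines were pin-tool dosed in 1536-well plates on the day after seeding, with either a lone drug or a fixed anchor-drug dose plus five library-drug doses (not always all listed) in √10 steps. Nuclei were counted on 4× images after 5 days. Relative viability is the ratio of treated-well to vehicle-well nuclei counts, with each value a median of duplicate plates.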

[2] = system: SK-MES-1
In short: as §1

[3] = system: LC-2-ad
In short: as §1

[4] = system: NCI-H1395
In short: as §1

[5] = system: NCI-H1734
In short: as §1

[6] = system: EKVX
In short: as §1

[7] = system: NCI-H2170
In short: as §1

[8] = system: NCI-H647
In short: as §1

[9] = system: LOU-NH91
In short: as §1

[10] = system: NCI-H2087
In short: as §1

[11] = system: SK-LU-1
In short: as §1

[12] = system: NCI-H596
In short: as §1

[13] = system: NCI-H1355
In short: as §1

[14] = system: NCI-H2009
In short: as §1

[15] = system: HCC-827
In short: as §1

[16] = system: NCI-H2342
In short: as §1

[17] = system: NCI-H2228
In short: as §1

[18] = system: NCI-H1437
In short: as §1

[19] = system: NCI-H2405
In short: as §1

[20] = system: HARA
In short: as §1

[21] = system: NCI-H661
In short: as §1

[22] = system: BEN
In short: as §1

O=C(O)c1ccc(-c2c[nH]c3ncc(-c4ccccc4)cc23)cc1C1CCCC1 + COc1cc2c(Oc3ccc(NC(=O)C4(C(=O)Nc5ccc(F)cc5)CC4)cc3F)ccnc2cc1OCCCN1CCOCC1 [Foretinib] (partner 0.25 µM)
relative viability ([1]; first compound 0.04 µM): 0.948 | relative viability ([1]; first compound 0.1265 µM): 0.951 | relative viability ([1]; first compound 0.4 µM): 0.894 | relative viability ([1]; first compound 1.265 µM): 0.881 | relative viability ([2]; first compound 0.04 µM): 0.963 | relative viability ([2]; first compound 0.1265 µM): 1.01 | relative viability ([2]; first compound 0.4 µM): 0.918 | relative viability ([2]; first compound 1.265 µM): 0.794 | relative viability ([3]; first compound 0.04 µM): 0.973 | relative viability ([3]; first compound 0.1265 µM): 0.935 | relative viability ([3]; first compound 0.4 µM): 0.798 | relative viability ([3]; first compound 1.265 µM): 0.702 | relative viability ([4]; first compound 0.04 µM): 0.983 | relative viability ([4]; first compound 0.1265 µM): 1.05 | relative viability ([4]; first compound 0.4 µM): 1.01 | relative viability ([4]; first compound 1.265 µM): 0.944 | relative viability ([5]; first compound 0.04 µM): 0.859 | relative viability ([5]; first compound 0.1265 µM): 1.04 | relative viability ([5]; first compound 0.4 µM): 0.731 | relative viability ([5]; first compound 1.265 µM): 0.766 | relative viability ([6]; first compound 0.04 µM): 0.826 | relative viability ([6]; first compound 0.1265 µM): 0.79 | relative viability ([6]; first compound 0.4 µM): 0.868 | relative viability ([6]; first compound 1.265 µM): 0.712 | relative viability ([7]; first compound 0.04 µM): 0.994 | relative viability ([7]; first compound 0.1265 µM): 1 | relative viability ([7]; first compound 0.4 µM): 0.968 | relative viability ([7]; first compound 1.265 µM): 0.777 | relative viability ([8]; first compound 0.04 µM): 1.33 | relative viability ([8]; first compound 0.1265 µM): 1.35 | relative viability ([8]; first compound 0.4 µM): 1.14 | relative viability ([8]; first compound 1.265 µM): 0.965 | relative viability ([9]; first compound 0.04 µM): 0.892 | relative viability ([9]; first compound 0.1265 µM): 1.03 | relative viability ([9]; first compound 0.4 µM): 0.927 | relative viability ([9]; first compound 1.265 µM): 0.781 | relative viability ([10]; first compound 0.04 µM): 0.933 | relative viability ([10]; first compound 0.1265 µM): 1.16 | relative viability ([10]; first compound 0.4 µM): 1.06 | relative viability ([10]; first compound 1.265 µM): 0.901 | relative viability ([11]; first compound 0.04 µM): 0.782 | relative viability ([11]; first compound 0.1265 µM): 0.875 | relative viability ([11]; first compound 0.4 µM): 0.705 | relative viability ([11]; first compound 1.265 µM): 0.51 | relative viability ([12]; first compound 0.04 µM): 0.783 | relative viability ([12]; first compound 0.1265 µM): 0.79 | relative viability ([12]; first compound 0.4 µM): 0.919 | relative viability ([12]; first compound 1.265 µM): 0.999 | relative viability ([13]; first compound 0.04 µM): 1.08 | relative viability ([13]; first compound 0.1265 µM): 0.992 | relative viability ([13]; first compound 0.4 µM): 0.957 | relative viability ([13]; first compound 1.265 µM): 0.622 | relative viability ([14]; first compound 0.04 µM): 1.22 | relative viability ([14]; first compound 0.1265 µM): 1.22 | relative viability ([14]; first compound 0.4 µM): 1.22 | relative viability ([14]; first compound 1.265 µM): 0.968 | relative viability ([15]; first compound 0.04 µM): 0.914 | relative viability ([15]; first compound 0.1265 µM): 1.08 | relative viability ([15]; first compound 0.4 µM): 0.957 | relative viability ([15]; first compound 1.265 µM): 0.543 | relative viability ([16]; first compound 0.04 µM): 1.03 | relative viability ([16]; first compound 0.1265 µM): 1.11 | relative viability ([16]; first compound 0.4 µM): 1.18 | relative viability ([16]; first compound 1.265 µM): 0.991 | relative viability ([17]; first compound 0.04 µM): 0.783 | relative viability ([17]; first compound 0.1265 µM): 0.915 | relative viability ([17]; first compound 0.4 µM): 0.871 | relative viability ([17]; first compound 1.265 µM): 0.576 | relative viability ([18]; first compound 0.04 µM): 1.25 | relative viability ([18]; first compound 0.1265 µM): 1.19 | relative viability ([18]; first compound 0.4 µM): 1.11 | relative viability ([18]; first compound 1.265 µM): 0.923 | relative viability ([19]; first compound 0.04 µM): 1.05 | relative viability ([19]; first compound 0.1265 µM): 1.1 | relative viability ([19]; first compound 0.4 µM): 1.02 | relative viability ([19]; first compound 1.265 µM): 0.747 | relative viability ([20]; first compound 0.04 µM): 0.836 | relative viability ([20]; first compound 0.1265 µM): 0.952 | relative viability ([20]; first compound 0.4 µM): 0.811 | relative viability ([20]; first compound 1.265 µM): 0.796 | relative viability ([21]; first compound 0.04 µM): 1 | relative viability ([21]; first compound 0.4 µM): 0.971 | relative viability ([21]; first compound 1.265 µM): 0.977 | relative viability ([22]; first compound 0.04 µM): 0.586 | relative viability ([22]; first compound 0.1265 µM): 0.854 | relative viability ([22]; first compound 0.4 µM): 0.937 | relative viability ([22]; first compound 1.265 µM): 0.765

O=C(O)c1ccc(-c2c[nH]c3ncc(-c4ccccc4)cc23)cc1C1CCCC1 + Cc1cc(Nc2cc(N3CCN(C)CC3)nc(Sc3ccc(NC(=O)C4CC4)cc3)n2)n[nH]1 [Tozasertib] (partner 0.1 µM)
relative viability ([1]; first compound 0.04 µM): 0.128 | relative viability ([1]; first compound 0.1265 µM): 0.163 | relative viability ([1]; first compound 0.4 µM): 0.0869 | relative viability ([1]; first compound 1.265 µM): 0.0888 | relative viability ([2]; first compound 0.04 µM): 0.93 | relative viability ([2]; first compound 0.1265 µM): 0.973 | relative viability ([2]; first compound 0.4 µM): 0.748 | relative viability ([2]; first compound 1.265 µM): 0.396 | relative viability ([3]; first compound 0.04 µM): 0.482 | relative viability ([3]; first compound 0.1265 µM): 0.407 | relative viability ([3]; first compound 0.4 µM): 0.399 | relative viability ([3]; first compound 1.265 µM): 0.402 | relative viability ([4]; first compound 0.04 µM): 0.818 | relative viability ([4]; first compound 0.1265 µM): 0.793 | relative viability ([4]; first compound 0.4 µM): 0.676 | relative viability ([4]; first compound 1.265 µM): 0.604 | relative viability ([5]; first compound 0.04 µM): 0.284 | relative viability ([5]; first compound 0.1265 µM): 0.236 | relative viability ([5]; first compound 0.4 µM): 0.247 | relative viability ([5]; first compound 1.265 µM): 0.258 | relative viability ([6]; first compound 0.04 µM): 0.404 | relative viability ([6]; first compound 0.1265 µM): 0.443 | relative viability ([6]; first compound 0.4 µM): 0.416 | relative viability ([6]; first compound 1.265 µM): 0.364 | relative viability ([7]; first compound 0.04 µM): 0.721 | relative viability ([7]; first compound 0.1265 µM): 0.726 | relative viability ([7]; first compound 0.4 µM): 0.679 | relative viability ([7]; first compound 1.265 µM): 0.612 | relative viability ([8]; first compound 0.04 µM): 0.223 | relative viability ([8]; first compound 0.1265 µM): 0.381 | relative viability ([8]; first compound 0.4 µM): 0.337 | relative viability ([8]; first compound 1.265 µM): 0.22 | relative viability ([9]; first compound 0.04 µM): 0.584 | relative viability ([9]; first compound 0.1265 µM): 0.688 | relative viability ([9]; first compound 0.4 µM): 0.616 | relative viability ([9]; first compound 1.265 µM): 0.526 | relative viability ([10]; first compound 0.04 µM): 0.248 | relative viability ([10]; first compound 0.1265 µM): 0.29 | relative viability ([10]; first compound 0.4 µM): 0.227 | relative viability ([10]; first compound 1.265 µM): 0.186 | relative viability ([11]; first compound 0.04 µM): 0.296 | relative viability ([11]; first compound 0.1265 µM): 0.347 | relative viability ([11]; first compound 0.4 µM): 0.298 | relative viability ([11]; first compound 1.265 µM): 0.292 | relative viability ([12]; first compound 0.04 µM): 0.863 | relative viability ([12]; first compound 0.1265 µM): 0.802 | relative viability ([12]; first compound 0.4 µM): 0.851 | relative viability ([12]; first compound 1.265 µM): 0.93 | relative viability ([13]; first compound 0.04 µM): 0.56 | relative viability ([13]; first compound 0.1265 µM): 0.632 | relative viability ([13]; first compound 0.4 µM): 0.522 | relative viability ([13]; first compound 1.265 µM): 0.281 | relative viability ([14]; first compound 0.04 µM): 0.734 | relative viability ([14]; first compound 0.1265 µM): 0.776 | relative viability ([14]; first compound 0.4 µM): 0.681 | relative viability ([14]; first compound 1.265 µM): 0.564 | relative viability ([15]; first compound 0.04 µM): 0.459 | relative viability ([15]; first compound 0.1265 µM): 0.475 | relative viability ([15]; first compound 0.4 µM): 0.404 | relative viability ([15]; first compound 1.265 µM): 0.328 | relative viability ([16]; first compound 0.04 µM): 0.588 | relative viability ([16]; first compound 0.1265 µM): 0.422 | relative viability ([16]; first compound 0.4 µM): 0.445 | relative viability ([16]; first compound 1.265 µM): 0.521 | relative viability ([17]; first compound 0.04 µM): 0.244 | relative viability ([17]; first compound 0.1265 µM): 0.272 | relative viability ([17]; first compound 0.4 µM): 0.218 | relative viability ([17]; first compound 1.265 µM): 0.186 | relative viability ([18]; first compound 0.04 µM): 0.402 | relative viability ([18]; first compound 0.1265 µM): 0.466 | relative viability ([18]; first compound 0.4 µM): 0.398 | relative viability ([18]; first compound 1.265 µM): 0.405 | relative viability ([19]; first compound 0.04 µM): 0.725 | relative viability ([19]; first compound 0.1265 µM): 0.806 | relative viability ([19]; first compound 0.4 µM): 0.648 | relative viability ([19]; first compound 1.265 µM): 0.583 | relative viability ([20]; first compound 0.04 µM): 0.104 | relative viability ([20]; first compound 0.1265 µM): 0.0989 | relative viability ([20]; first compound 0.4 µM): 0.197 | relative viability ([20]; first compound 1.265 µM): 0.0904 | relative viability ([21]; first compound 0.04 µM): 0.367 | relative viability ([21]; first compound 0.1265 µM): 0.36 | relative viability ([21]; first compound 0.4 µM): 0.353 | relative viability ([21]; first compound 1.265 µM): 0.34 | relative viability ([22]; first compound 0.04 µM): 0.603 | relative viability ([22]; first compound 0.1265 µM): 0.501 | relative viability ([22]; first compound 0.4 µM): 0.49 | relative viability ([22]; first compound 1.265 µM): 0.437
